Measurements taken from ChEMBL document CHEMBL1909046, “DrugMatrix in vitro pharmacology data”.

What was measured:
[1] = DRUGMATRIX: Calcium Channel Type L, Phenylalkylamine radioligand binding (ligand: [3H] (-)-Desmethoxyverapamil (D-888)); type: cell membranes, Rattus norvegicus, Wistar, Brain, Membrane; conditions: Not Active = under 50% inhibition at 10 µM
[2] = molecular target: T1, 5-hydroxytryptamine receptor 1A (Rattus norvegicus, UniProt P19327); type: cell membranes, CHO-K1, Membrane; note: in other assays of this panel Not Active means under 50% inhibition at 10 µM
T1 sequence (P19327 whole entry): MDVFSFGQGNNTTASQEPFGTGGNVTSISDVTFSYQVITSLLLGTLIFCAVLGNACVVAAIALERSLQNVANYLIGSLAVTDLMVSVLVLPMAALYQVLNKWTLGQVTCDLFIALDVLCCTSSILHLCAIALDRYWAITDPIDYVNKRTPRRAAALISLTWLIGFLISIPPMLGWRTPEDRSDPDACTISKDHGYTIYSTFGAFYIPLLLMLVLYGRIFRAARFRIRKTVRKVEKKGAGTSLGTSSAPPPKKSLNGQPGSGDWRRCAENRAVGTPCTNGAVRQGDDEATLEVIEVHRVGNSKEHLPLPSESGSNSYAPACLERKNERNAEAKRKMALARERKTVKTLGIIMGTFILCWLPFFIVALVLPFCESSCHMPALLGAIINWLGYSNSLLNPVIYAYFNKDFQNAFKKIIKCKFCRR

[3] = molecular target: T2, Adenosine receptor A3 (Homo sapiens, UniProt P0DMS8); type: cell membranes, CHO-K1, Membrane; conditions: cho-k1;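 note: radioligand binding assay with AB-MECA serving as the labeled ligand; in other assays of this panel Not Active means under 50% inhibition at 10 µM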
T2 sequence (P0DMS8 whole entry): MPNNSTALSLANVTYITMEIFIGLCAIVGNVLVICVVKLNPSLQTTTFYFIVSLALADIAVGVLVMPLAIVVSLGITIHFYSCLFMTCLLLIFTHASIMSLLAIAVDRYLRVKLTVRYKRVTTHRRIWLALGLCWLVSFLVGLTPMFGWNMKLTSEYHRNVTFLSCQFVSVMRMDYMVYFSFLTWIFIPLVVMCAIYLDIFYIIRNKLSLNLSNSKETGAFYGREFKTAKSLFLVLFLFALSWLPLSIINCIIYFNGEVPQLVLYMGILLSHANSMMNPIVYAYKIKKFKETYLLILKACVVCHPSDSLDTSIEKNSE

[4] = DRUGMATRIX: Platelet-Derived Growth Factor (PDGF) radioligand binding (ligand: [125I] PDGF); type: cell-based; conditions: nih3t3; Not Active = under 50% inhibition at 10 µM
[5] = molecular target: T3, Substance-K receptor (Homo sapiens, UniProt P21452); type: cell membranes, CHO, Membrane; conditions: cho; note: in other assays of this panel Not Active means under 50% inhibition at 10 µM
T3 sequence (P21452 whole entry): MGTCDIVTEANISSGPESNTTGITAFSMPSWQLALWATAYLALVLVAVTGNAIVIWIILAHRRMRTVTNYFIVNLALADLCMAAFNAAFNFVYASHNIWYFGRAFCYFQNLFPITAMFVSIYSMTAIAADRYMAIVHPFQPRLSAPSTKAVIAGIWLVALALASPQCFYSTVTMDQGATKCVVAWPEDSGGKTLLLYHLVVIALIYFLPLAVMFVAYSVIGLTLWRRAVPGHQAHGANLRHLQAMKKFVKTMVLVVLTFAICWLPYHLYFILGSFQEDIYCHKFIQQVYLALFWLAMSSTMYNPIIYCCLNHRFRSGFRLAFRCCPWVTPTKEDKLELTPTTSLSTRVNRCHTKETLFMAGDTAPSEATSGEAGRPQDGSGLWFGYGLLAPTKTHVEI

[6] = molecular target: T4, C-X-C chemokine receptor type 2 (Homo sapiens, UniProt P25025); type: cell membranes, Membrane; conditions: cho-k1; note: in other assays of this panel Not Active means under 50% inhibition at 10 µM
T4 sequence (P25025 whole entry): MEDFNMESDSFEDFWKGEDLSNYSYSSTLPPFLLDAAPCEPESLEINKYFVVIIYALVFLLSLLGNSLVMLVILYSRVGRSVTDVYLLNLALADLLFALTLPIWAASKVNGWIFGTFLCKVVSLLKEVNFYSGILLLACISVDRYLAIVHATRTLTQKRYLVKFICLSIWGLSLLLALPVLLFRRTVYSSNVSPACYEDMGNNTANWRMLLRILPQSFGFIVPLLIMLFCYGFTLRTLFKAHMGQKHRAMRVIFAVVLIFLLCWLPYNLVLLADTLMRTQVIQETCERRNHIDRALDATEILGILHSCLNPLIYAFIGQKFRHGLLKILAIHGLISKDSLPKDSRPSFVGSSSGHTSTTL

[7] = molecular target: T5, Neuropeptide Y receptor type 1 (Homo sapiens, UniProt P25929); type: cell membranes, Membrane; conditions: sk-n-mc; note: in other assays of this panel Not Active means under 50% inhibition at 10 µM
T5 sequence (P25929 whole entry): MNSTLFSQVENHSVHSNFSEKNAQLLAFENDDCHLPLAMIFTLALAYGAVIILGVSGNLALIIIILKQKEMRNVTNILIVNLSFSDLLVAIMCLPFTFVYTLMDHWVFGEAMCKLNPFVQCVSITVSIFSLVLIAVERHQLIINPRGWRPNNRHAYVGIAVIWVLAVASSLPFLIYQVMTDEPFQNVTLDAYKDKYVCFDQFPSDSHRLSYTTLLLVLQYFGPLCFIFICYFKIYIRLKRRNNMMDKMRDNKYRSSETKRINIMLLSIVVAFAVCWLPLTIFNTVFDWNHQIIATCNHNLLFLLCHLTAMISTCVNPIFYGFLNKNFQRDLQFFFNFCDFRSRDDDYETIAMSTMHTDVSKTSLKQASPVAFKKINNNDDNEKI

[8] = molecular target: T6, Vasoactive intestinal polypeptide receptor 1 (Homo sapiens, UniProt P32241); type: cell membranes, Membrane; conditions: ht-29; note: in other assays of this panel Not Active means under 50% inhibition at 10 µM
T6 sequence (P32241 whole entry): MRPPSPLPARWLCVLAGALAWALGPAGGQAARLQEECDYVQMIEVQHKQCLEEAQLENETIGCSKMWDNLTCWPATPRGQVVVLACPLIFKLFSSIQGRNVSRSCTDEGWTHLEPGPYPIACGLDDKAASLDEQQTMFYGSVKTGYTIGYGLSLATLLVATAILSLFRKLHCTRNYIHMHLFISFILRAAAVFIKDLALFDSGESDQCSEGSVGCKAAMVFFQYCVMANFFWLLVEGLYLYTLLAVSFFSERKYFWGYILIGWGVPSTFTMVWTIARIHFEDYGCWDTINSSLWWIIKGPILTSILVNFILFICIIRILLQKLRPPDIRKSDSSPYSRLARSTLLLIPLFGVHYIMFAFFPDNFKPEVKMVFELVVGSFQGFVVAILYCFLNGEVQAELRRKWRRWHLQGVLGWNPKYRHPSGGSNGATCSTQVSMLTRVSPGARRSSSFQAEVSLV

[9] = DRUGMATRIX: Phosphodiesterase PDE4 enzyme inhibition (substrate: [3H]cAMP + cAMP); conditions: u-937; Not Active = under 50% inhibition at 10 µM
[10] = DRUGMATRIX: Serotonin (5-Hydroxytryptamine) 5-HT3 radioligand binding (ligand: [3H] GR-65630); type: cell membranes, Membrane; conditions: hek293; Not Active = under 50% inhibition at 10 µM

Row | Molecule | IC50 [1] | Ki [1] | IC50 ([2]; cho-k1) | IC50 [3] | IC50 [4] | Ki [4] | IC50 [5] | IC50 [6] | IC50 [7] | IC50 [8] | IC50 [9] | Ki [9] | IC50 [10] | Ki [10] | other results
1 | CC(=O)CCCCn1c(=O)c2c(ncn2C)n(C)c1=O [PENTOXIFYLLINE] | Not Active | Not Active | Not Active | Not Active | Not Active | Not Active | Not Active | Not Active | Not Active | Not Active | Not Active | Not Active | Not Active | Not Active | 
2 | C=C1C(=O)O[C@@H]2C3O[C@]3(C)CC/C=C(\C)CC[C@@H]12 (stereo not given in full) | Not Active | Not Active | Not Active | Not Active | Not Active | Not Active | Not Active | Not Active | Not Active | Not Active | Not Active | Not Active | Not Active | Not Active | 
3 | C=C(C)[C@@H]1[C@H]2OC(=O)[C@@H]1[C@]1(O)C[C@H]3O[C@]34C(=O)O[C@H]2[C@]14C [PICROTOXININ] | Not Active | Not Active | Not Active | Not Active | Not Active | Not Active | Not Active | Not Active | Not Active | Not Active | Not Active | Not Active | Not Active | Not Active | 
4 | CARBOPLATIN | Not Active | Not Active | Not Active | Not Active | Not Active | Not Active | Not Active | Not Active | Not Active | Not Active | Not Active | Not Active | Not Active | Not Active | Ki ([2]; cho-k1): Not Active; Ki [3]: Not Active; Ki [5]: Not Active; Ki [6]: Not Active; Ki [7]: Not Active; Ki [8]: Not Active
5 | c1ccc2c(c1)cc1ccc3cccc4ccc2c1c34 | Not Active | Not Active | Not Active | Not Active | Not Active | Not Active | Not Active | Not Active | Not Active | Not Active | Not Active | Not Active | Not Active | Not Active | 
6 | CCCCOC(=O)c1ccc(N)cc1 [BUTAMBEN] | Not Active | Not Active | Not Active | Not Active | Not Active | Not Active | Not Active | Not Active | Not Active | Not Active | Not Active | Not Active | Not Active | Not Active | 
7 | Cc1ccccc1N1CCN(CCc2nnc3n2CCCC3)CC1 [DAPIPRAZOLE] | Not Active | Not Active |  | Not Active | Not Active | Not Active | Not Active | Not Active | Not Active | Not Active | Not Active | Not Active | Not Active | Not Active | IC50 ([2]; read-out: IC50): 2.06 µM; Ki ([2]; read-out: Ki): 1.18 µM
